Data on 31 compounds can be found in patent publication US20210392895A1, “NOVEL OXADIAZOLES” (PI INDUSTRIES LIMITED, priority 2018, published 2021).

Some results are limits rather than exact numbers.

One test deals with Pyricularia oryzae. In words: microbe, parasite or virus in culture. The format is cell-based. To be noted: 168 h, read-out: control.
The test system of another test is Phakopsora pachyrhizi. In words: Phakopsora pachyrhizi test in soybean (greenhouse, preventive activity, disease severity rating). Conditions: preventive spray on soybean, compared to the untreated check. Type of test: in vivo. As to the method:
To test the preventive activity of compounds, healthy young soybean plants, raised in the greenhouse, were sprayed with the active compound solution at the stated application rates inside spray cabinets using hallowcone nozzles. One day after treatment, the plants were inoculated with a suspension containing 2.1×10^6 Phakopsora pachyrhizi spores. The inoculated plants were then kept in the greenhouse chamber at 25° C. temperature and 90% relative humidity for disease expression. A visual assessment of the compound's performance was carried out by rating the disease severity (0-100% scale) on treated plants on 3, 7, 10 and 15 days after application. Efficacy (% control) of the compounds was calculated by comparing the disease rating in the treatment with the one of the untreated control. The treated plants were also assessed for plant compatibility by recording symptoms like necrosis, chlorosis and stunting.

For `Cc1cccc(C(=O)N2CC[C@@H](Sc3ccc(-c4noc(C(F)(F)F)n4)cc3)C2)c1` [Compound 172, (R)-m-tolyl(3-((4-(5-(trifluoromethyl)-1,2,4-oxadiazol-3-yl)phenyl)thio)pyrrolidin-1-yl)methanone], the inhibition of growth at 300 ppm with Pyricularia oryzae was greater than 70%.
Take `CC(=O)N1CC(N(c2ccc(-c3noc(C(F)(F)F)n3)cc2)c2ccc(-c3noc(C(F)(F)F)n3)cc2)C1` [Compound 90, 1-(3-(bis(4-(5-(trifluoromethyl)-1,2,4-oxadiazol-3-yl)phenyl)amino)azetidin-1-yl)ethan-1-one]: the inhibition of growth at 300 ppm in the test on Pyricularia oryzae is greater than 70%.
The same measure, in the same setting: the same measure for `O=C(c1ccncc1)N1CCC(Oc2ccc(-c3noc(C(F)(F)F)n3)cc2)CC1` [Compound 179, pyridin-4-yl(4-(4-(5-(trifluoromethyl)-1,2,4-oxadiazol-3-yl)phenoxy)piperidin-1-yl)methanone]: greater than 70%.
What is called pest or weed control is how far the test organism was held down. Low values mean weak suppression, high ones strong suppression. `O=S(=O)(c1ccccc1)N1CC[C@H](Oc2ccc(-c3noc(C(F)(F)F)n3)cn2)C1` [Compound 104, (S)-3-(6-((1-(phenylsulfonyl)pyrrolidin-3-yl)oxy)pyridin-3-yl)-5-(trifluoromethyl)-1,2,4-oxadiazole] displayed a pest or weed control at 500 ppm with Phakopsora pachyrhizi greater than 70%.
For `CC(C)(C)OC(=O)N1CC[C@@H](Sc2ccc(-c3noc(C(F)(F)F)n3)cc2)C1` [Compound 157, tert-butyl (R)-3-((4-(5-(trifluoromethyl)-1,2,4-oxadiazol-3-yl)phenyl)thio)pyrrolidine-1-carboxylate], in the test with Phakopsora pachyrhizi, the pest or weed control at 500 ppm was greater than 70%.
In the test on Phakopsora pachyrhizi, `CC(C)(C)C(=O)N1CCC(Oc2cccc(-c3noc(C(F)(F)F)n3)c2)C1` (stereo not shown) [Compound 130, 2,2-dimethyl-1-(3-(3-(5-(trifluoromethyl)-1,2,4-oxadiazol-3-yl)phenoxy)pyrrolidin-1-yl)propan-1-one] came in with a pest or weed control at 500 ppm greater than 70%.
Regarding `O=C(c1ccncc1)N1CC[C@H](Oc2ccc(-c3noc(C(F)(F)F)n3)nc2)C1` [Compound 32, (S)-pyridin-4-yl(3-((6-(5-(trifluoromethyl)-1,2,4-oxadiazol-3-yl)pyridin-3-yl)oxy)pyrrolidin-1-yl)methanone], the pest or weed control at 500 ppm with Phakopsora pachyrhizi is greater than 70%.
`CCS(=O)(=O)N1CC[C@H](Oc2ccc(-c3noc(C(F)(F)F)n3)cc2)C1` [Compound 40, (S)-3-(4-((1-(ethylsulfonyl)pyrrolidin-3-yl)oxy)phenyl)-5-(trifluoromethyl)-1,2,4-oxadiazole]: in the test on Pyricularia oryzae, the inhibition of growth at 300 ppm is greater than 70%.
`Cc1ccc(C(=O)N2CCC(Oc3cccc(-c4noc(C(F)(F)F)n4)c3)C2)cc1` (stereo not shown) [Compound 135, p-tolyl(3-(3-(5-(trifluoromethyl)-1,2,4-oxadiazol-3-yl)phenoxy)pyrrolidin-1-yl)methanone]: the inhibition of growth at 300 ppm with Pyricularia oryzae was greater than 70%.
In turn, `O=C(c1cccc(F)c1)N1CC[C@H](Oc2ccc(-c3noc(C(F)(F)F)n3)cn2)C1` [Compound 47, (S)-(3-fluorophenyl)(3-((5-(5-(trifluoromethyl)-1,2,4-oxadiazol-3-yl)pyridin-2-yl)oxy)pyrrolidin-1-yl)methanone] registered a pest or weed control at 500 ppm in the test on Phakopsora pachyrhizi greater than 70%.
For the compound `O=C(c1ccc(F)cc1)N1CCC(Oc2ccc(-c3noc(C(F)(F)F)n3)cc2)CC1` [Compound 142, (4-fluorophenyl)(4-(4-(5-(trifluoromethyl)-1,2,4-oxadiazol-3-yl)phenoxy)piperidin-1-yl)methanone], the pest or weed control at 500 ppm in the test on Phakopsora pachyrhizi is greater than 70%.
Consider `COc1ccc(C(=O)N2CC[C@H](Oc3ccc(-c4noc(C(F)(F)F)n4)nc3)C2)cc1` [Compound 29, (S)-(4-methoxyphenyl)(3-((6-(5-(trifluoromethyl)-1,2,4-oxadiazol-3-yl)pyridin-3-yl)oxy)pyrrolidin-1-yl)methanone], for which the pest or weed control at 500 ppm with Phakopsora pachyrhizi is greater than 70%.
In the case of `O=C(c1ccccc1F)N1CC[C@H](Oc2ccc(-c3noc(C(F)(F)F)n3)nc2)C1` [Compound 28, (S)-(2-fluorophenyl)(3-((6-(5-(trifluoromethyl)-1,2,4-oxadiazol-3-yl)pyridin-3-yl)oxy)pyrrolidin-1-yl)methanone], the pest or weed control at 500 ppm with Phakopsora pachyrhizi was greater than 70%.
`O=C(c1ccccc1F)N1CCC(Oc2ccc(-c3noc(C(F)(F)F)n3)cc2)CC1` [Compound 92, (2-fluorophenyl)(4-(4-(5-(trifluoromethyl)-1,2,4-oxadiazol-3-yl)phenoxy)piperidin-1-yl)methanone]: the inhibition of growth at 300 ppm in the test on Pyricularia oryzae was greater than 70%.
`O=S(=O)(c1ccc(C(F)(F)F)cc1)N1CC[C@H](Oc2ccc(-c3noc(C(F)(F)F)n3)cn2)C1` [Compound 109, (S)-5-(trifluoromethyl)-3-(6-((1-((4-(trifluoromethyl)phenyl)sulfonyl)pyrrolidin-3-yl)oxy)pyridin-3-yl)-1,2,4-oxadiazole] registered a pest or weed control at 500 ppm in the test with Phakopsora pachyrhizi greater than 70%.
As to `O=C(Cc1ccc(Cl)cc1)N1CCC(Oc2ccc(-c3noc(C(F)(F)F)n3)cc2)CC1` [Compound 145, 2-(4-chlorophenyl)-1-(4-(4-(5-(trifluoromethyl)-1,2,4-oxadiazol-3-yl)phenoxy)piperidin-1-yl)ethan-1-one], the pest or weed control at 500 ppm in the test with Phakopsora pachyrhizi is greater than 70%.
As to `CN(c1ccc(-c2noc(C(F)(F)F)n2)cc1)C1CCN(C(=O)OC(C)(C)C)C1` (stereo not shown) [Compound 167, tert-butyl 3-(methyl(4-(5-(trifluoromethyl)-1,2,4-oxadiazol-3-yl)phenyl)amino)pyrrolidine-1-carboxylate], the inhibition of growth at 300 ppm with Pyricularia oryzae was greater than 70%.
On to `O=C(c1cccc(F)c1)N1CC(Oc2ccc(-c3noc(C(F)(F)F)n3)cc2)C1` [Compound 18, (3-fluorophenyl)(3-(4-(5-(trifluoromethyl)-1,2,4-oxadiazol-3-yl)phenoxy)azetidin-1-yl)methanone], for which the pest or weed control at 500 ppm in the test on Phakopsora pachyrhizi is greater than 70%.
As for `O=S(=O)(c1cccc(F)c1)N1CC[C@H](Oc2ccc(-c3noc(C(F)(F)F)n3)cc2)C1` [Compound 26, (S)-3-(4-((1-((3-fluorophenyl)sulfonyl)pyrrolidin-3-yl)oxy)phenyl)-5-(trifluoromethyl)-1,2,4-oxadiazole], in the test with Phakopsora pachyrhizi, the pest or weed control at 500 ppm was greater than 70%.
On the same count and under the same terms, for `CC(C)(C)OC(=O)N1CCC(Oc2cccc(-c3noc(C(F)(F)F)n3)c2)C1` (stereo not shown) [Compound 127, tert-butyl 3-(3-(5-(trifluoromethyl)-1,2,4-oxadiazol-3-yl)phenoxy)pyrrolidine-1-carboxylate] the value was greater than 70%.
In the case of `COc1cccc(S(=O)(=O)N2CC(N(C)c3ccc(-c4noc(C(F)(F)F)n4)cc3)C2)c1` [Compound 198, 1-((3-methoxyphenyl)sulfonyl)-N-methyl-N-(4-(5-(trifluoromethyl)-1,2,4-oxadiazol-3-yl)phenyl)azetidin-3-amine], in the test on Pyricularia oryzae, the inhibition of growth at 300 ppm is greater than 70%.
In the test on Phakopsora pachyrhizi, `O=S(=O)(c1cccnc1)N1CC[C@H](Oc2ccc(-c3noc(C(F)(F)F)n3)cn2)C1` [Compound 153, (S)-3-(6-((1-(pyridin-3-ylsulfonyl)pyrrolidin-3-yl)oxy)pyridin-3-yl)-5-(trifluoromethyl)-1,2,4-oxadiazole] came in with a pest or weed control at 500 ppm greater than 70%.
`O=S(=O)(c1ccc(F)cc1)N1CC[C@H](Oc2ccc(-c3noc(C(F)(F)F)n3)cc2)C1` [Compound 35, (S)-3-(4-((1-((4-fluorophenyl)sulfonyl)pyrrolidin-3-yl)oxy)phenyl)-5-(trifluoromethyl)-1,2,4-oxadiazole] yielded a pest or weed control at 500 ppm in the test on Phakopsora pachyrhizi greater than 70%.
In turn, `Cc1cccc(S(=O)(=O)N2CC[C@H](Oc3ccc(-c4noc(C(F)(F)F)n4)cn3)C2)c1` [Compound 112, (S)-3-(6-((1-(m-tolylsulfonyl)pyrrolidin-3-yl)oxy)pyridin-3-yl)-5-(trifluoromethyl)-1,2,4-oxadiazole] returned a pest or weed control at 500 ppm with Phakopsora pachyrhizi greater than 70%.
Take `O=C(c1ccc(F)cc1)N1CC[C@H](Oc2ccc(-c3noc(C(F)(F)F)n3)cc2)C1` [Compound 14, (S)-(4-fluorophenyl)(3-(4-(5-(trifluoromethyl)-1,2,4-oxadiazol-3-yl)phenoxy)pyrrolidin-1-yl)methanone]: in the test with Phakopsora pachyrhizi, the pest or weed control at 500 ppm was greater than 70%.
The compound `O=S(=O)(C1CC1)N1CC[C@H](Oc2ccc(-c3noc(C(F)(F)F)n3)cn2)C1` [Compound 106, (S)-3-(6-((1-(cyclopropylsulfonyl)pyrrolidin-3-yl)oxy)pyridin-3-yl)-5-(trifluoromethyl)-1,2,4-oxadiazole] had a pest or weed control at 500 ppm in the test with Phakopsora pachyrhizi greater than 70%.
Regarding `COc1ccc(S(=O)(=O)N2CC[C@H](Oc3ccc(-c4noc(C(F)(F)F)n4)cc3)C2)cc1` [Compound 34, (S)-3-(4-((1-((4-methoxyphenyl)sulfonyl)pyrrolidin-3-yl)oxy)phenyl)-5-(trifluoromethyl)-1,2,4-oxadiazole], the pest or weed control at 500 ppm in the test on Phakopsora pachyrhizi was greater than 70%.
Same read-out and setting: the same measure for `Cc1ccc(S(=O)(=O)N2CC[C@H](Oc3ccc(-c4noc(C(F)(F)F)n4)cn3)C2)cc1` [Compound 107, (S)-3-(6-((1-tosylpyrrolidin-3-yl)oxy)pyridin-3-yl)-5-(trifluoromethyl)-1,2,4-oxadiazole]: greater than 70%; for `O=C(c1cccnc1)N1CC[C@H](Oc2ccc(-c3noc(C(F)(F)F)n3)nc2)C1` [Compound 31, (S)-pyridin-3-yl(3-((6-(5-(trifluoromethyl)-1,2,4-oxadiazol-3-yl)pyridin-3-yl)oxy)pyrrolidin-1-yl)methanone]: greater than 70%; for `O=S(=O)(N1CC[C@H](Oc2ccc(-c3noc(C(F)(F)F)n3)cc2)C1)C(F)(F)F` [Compound 114, (S)-5-(trifluoromethyl)-3-(4-((1-((trifluoromethyl)sulfonyl)pyrrolidin-3-yl)oxy)phenyl)-1,2,4-oxadiazole]: greater than 70%.
The compound `CCS(=O)(=O)N1CC[C@H](Oc2ccc(-c3noc(C(F)(F)F)n3)cn2)C1` [Compound 50, (S)-3-(6-((1-(ethylsulfonyl)pyrrolidin-3-yl)oxy)pyridin-3-yl)-5-(trifluoromethyl)-1,2,4-oxadiazole] returned a pest or weed control at 500 ppm in the test with Phakopsora pachyrhizi greater than 70%.
